Data published in patent publication US8791077B2, “Method for treating hyperuricemia employing an SGLT2 inhibitor and composition containing same” (AstraZeneca AB, priority 2008, dated 2014).

How the values were obtained:
[1] = tested on: Healthy Normal Volunteers; experiment: Urinary glucose excretion over 24 hr in healthy normal volunteers after single doses of SGLT2 inhibitors; assay type: in vivo, human; details: healthy subjects; 5, 20, 50 or 100 mg; compared to GSK 869,682; FIG. 1
type 2 diabetic patients = tested on: type 2 diabetic patients
Source text: C-aryl glucoside SGLT2 inhibitors are known to reduce blood glucose levels in diabetic patients, see U.S. Pat. No. 6,774,112, which is incorporated herein by reference in its entirety, but not known to increase urine volume. […] Metformin reduces plasma glucose concentration by non-renal mechanisms and is not known to induce glucosuria. […] On day 1 and day 14, the patients were examined for the levels of glucosuria and changes in urine volumes. […] Patients' serum uric acid levels were not measured in this experiment.

diabetic patients = experiment: 12-week treatment of diabetic patients: urine glucose, HbA1C, urine volume, serum uric acid; assay type: in vivo, human; details: for Uric Acid (change in serum uric acid), mean ± standard deviation: 12 week treatment
patients with diabetes = details: 5, 25, or 100 mg, FIG. 2
Source text: The levels of urine glucose of all subjects are shown in the plot and the mean urine glucose is in the darker lines.

SGLT2 relative to SGLT-1 = details: ratio of EC50 in SGLT1 and SGLT2 assay
Source text: Selectivity for SGLT2 of a given inhibitor can be determined by comparing the EC50 values measured in the SGLT1 and SGLT2 assay. […] The hSGLT1 and hSGLT2 sequences were cloned into pIRESneo vector (Clontech, Mountain View, Calif.) for mammalian expression and were stably transfected into Chinese hamster ovary (CHO) cells. SGLT-expressing clones were selected based on resistance to G418 antibiotic (GENETICIN®, Invitrogen, Carlsbad, Calif.) and activity in the ^14C-α-methyl-D-glucopyranoside (^14C-AMG) uptake assay.
Cells expressing hSGLT1 or hSGLT2 were maintained using standard cell culture techniques. […] Sodium-dependent ^14C-AMG uptake was calculated by subtracting the counts per minute (CPM) observed under sodium-free uptake conditions from the counts observed under sodium-containing conditions. Inhibitors were assayed at various concentrations in triplicate in the presence of sodium, and the percent inhibition was calculated by comparing CPM in inhibitor-containing wells with CPM in wells containing only DMSO vehicle. Phlorizin, a known SGLT inhibitor, was evaluated in parallel in every assay. […]

CCOc1ccc(Cc2cc([C@@H]3O[C@H](CO)[C@@H](O)[C@H](O)[C@H]3O)ccc2Cl)cc1 [dapagliflozin PGS, dapagliflozin (S)-propylene glycol solvate]
Glucosuric effect (glucose excretion/day within 24 hours), loss of calories in urine [1]: significant loss of calories in the urine
Fasting serum glucose (FSG) levels (type 2 diabetic patients; two-week period): Dose-dependent reduction
Postprandial glucose levels in oral glucose tolerance tests (OGTT) (type 2 diabetic patients; two-week period): reduced postprandial glucose levels
Urine volumes (type 2 diabetic patients; two-week period): no increase in urine volumes was apparent
Urinary glucose levels within a 24-hour time period (type 2 diabetic patients; vs placebo, FIG. 3): increased
Uric Acid (change in serum uric acid), mean ± standard deviation (diabetic patients; 2.5 mg): -1.03 ± 0.81 mg/dL
Uric Acid (change in serum uric acid), mean ± standard deviation (diabetic patients; 5 mg): -1.12 ± 0.84 mg/dL
Uric Acid (change in serum uric acid), mean ± standard deviation (diabetic patients; 10 mg): -0.98 ± 0.66 mg/dL
Uric Acid (change in serum uric acid), mean ± standard deviation (diabetic patients; 20 mg): -1.13 ± 0.78 mg/dL
Uric Acid (change in serum uric acid), mean ± standard deviation (diabetic patients; 50 mg): -1.14 ± 1.15 mg/dL
OGT (diabetic patients; diabetic patients, 2.5-50 mg, after 12 weeks of treatment): improved OGT
Average of decrease in serum uric acid levels (diabetic patients; diabetic patients, all doses, after 12 weeks treatment): approximately 1 g/dL
Urine glucose excretion compared to placebo (patients with diabetes): higher levels of urine glucose excretion

CN(C)C(=N)N=C(N)N [metformin, reference compound]
Uric Acid (change in serum uric acid), mean ± standard deviation (diabetic patients; metformin group): 0.18 ± 0.53 mg/dL
Reduced HbA1C levels (diabetic patients; diabetic patients, 1500 mg metformin): 0.73%

CCOc1ccc(Cc2cc([C@@H]3O[C@H](CO)[C@@H](O)[C@H](O)[C@H]3O)ccc2Cl)cc1 [dapagliflozin]
Selectivity for SGLT2 relative to SGLT-1 (SGLT2 relative to SGLT-1): High selectivity for SGLT2
